From PubChem BioAssay (NCI)
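Interpolation was linear, between the two tested concentrations surrounding the appropriate level; five concentrations were tested over 48 hours in 96-well plates. GI50: concentration for 50% inhibition of growth. The concentration for full growth arrest is given as TGI.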

What was measured:
Test in all cases: NCI anticancer screen, dose series, 48 h
TK-10 renal = system: TK-10 renal
DU-145 prostate = system: DU-145 prostate
UACC-62 melanoma = system: UACC-62 melanoma
U251 CNS = system: U251 CNS
HCT-116 colon = system: HCT-116 colon
HOP-92 NSCLC = system: HOP-92 NSCLC
MOLT-4 leukemia = system: MOLT-4 leukemia
ACHN renal = system: ACHN renal
SNB-19 CNS = system: SNB-19 CNS
SNB-75 CNS = system: SNB-75 CNS
MALME-3M melanoma = system: MALME-3M melanoma
NCI/ADR-RES ovarian = system: NCI/ADR-RES ovarian
HS 578T breast = system: HS 578T breast
HCC-2998 colon = system: HCC-2998 colon
CAKI-1 renal = system: CAKI-1 renal
786-0 renal = system: 786-0 renal
SF-295 CNS = system: SF-295 CNS
CCRF-CEM leukemia = system: CCRF-CEM leukemia
NCI-H23 lung = system: NCI-H23 lung
NCI-H226 lung = system: NCI-H226 lung
A498 renal = system: A498 renal
SF-539 CNS = system: SF-539 CNS
COLO 205 colon = system: COLO 205 colon
BT-549 breast = system: BT-549 breast
OVCAR-3 ovarian = system: OVCAR-3 ovarian
M14 melanoma = system: M14 melanoma
SN12C renal = system: SN12C renal
HCT-15 colon = system: HCT-15 colon
SK-MEL-5 melanoma = system: SK-MEL-5 melanoma
KM12 colon = system: KM12 colon
HT29 colon = system: HT29 colon
OVCAR-4 ovarian = system: OVCAR-4 ovarian
HOP-62 NSCLC = system: HOP-62 NSCLC
RXF 393 renal = system: RXF 393 renal
K-562 leukemia = system: K-562 leukemia
NCI-H522 lung = system: NCI-H522 lung
T-47D breast = system: T-47D breast
EKVX NSCLC = system: EKVX NSCLC
OVCAR-8 ovarian = system: OVCAR-8 ovarian
LOX IMVI melanoma = system: LOX IMVI melanoma
MDA-MB-231 breast = system: MDA-MB-231 breast
IGROV1 ovarian = system: IGROV1 ovarian
OVCAR-5 ovarian = system: OVCAR-5 ovarian
HL-60(TB) leukemia = system: HL-60(TB) leukemia
SW-620 colon = system: SW-620 colon
SK-MEL-28 melanoma = system: SK-MEL-28 melanoma
PC-3 prostate = system: PC-3 prostate
MDA-MB-435 = system: MDA-MB-435
UO-31 renal = system: UO-31 renal
A549 NSCLC = system: A549 NSCLC
SK-OV-3 ovarian = system: SK-OV-3 ovarian
UACC-257 melanoma = system: UACC-257 melanoma
RPMI-8226 leukemia = system: RPMI-8226 leukemia
SK-MEL-2 melanoma = system: SK-MEL-2 melanoma

Which results are given for `Cc1cn2cc(-c3ccc4c(c3)CC(=O)N4)nc2s1`?
GI50 (TK-10 renal): > 100 µM; TGI (TK-10 renal): > 100 µM; GI50 (DU-145 prostate): > 100 µM; TGI (DU-145 prostate): > 100 µM; GI50 (UACC-62 melanoma): 33.7 µM; TGI (UACC-62 melanoma): > 100 µM; GI50 (U251 CNS): > 100 µM; TGI (U251 CNS): > 100 µM; GI50 (HCT-116 colon): 70.1 µM; TGI (HCT-116 colon): > 100 µM; GI50 (HOP-92 NSCLC): > 100 µM; TGI (HOP-92 NSCLC): > 100 µM; GI50 (MOLT-4 leukemia): 50.7 µM; TGI (MOLT-4 leukemia): > 100 µM; GI50 (ACHN renal): 49.7 µM; TGI (ACHN renal): > 100 µM; GI50 (SNB-19 CNS): > 100 µM; TGI (SNB-19 CNS): > 100 µM; GI50 (SNB-75 CNS): > 100 µM; TGI (SNB-75 CNS): > 100 µM; GI50 (MALME-3M melanoma): > 100 µM; TGI (MALME-3M melanoma): > 100 µM; GI50 (NCI/ADR-RES ovarian): > 100 µM; TGI (NCI/ADR-RES ovarian): > 100 µM; GI50 (HS 578T breast): > 100 µM; TGI (HS 578T breast): > 100 µM; GI50 (HCC-2998 colon): 46.2 µM; TGI (HCC-2998 colon): > 100 µM; GI50 (CAKI-1 renal): > 100 µM; TGI (CAKI-1 renal): > 100 µM; GI50 (786-0 renal): > 100 µM; TGI (786-0 renal): > 100 µM; GI50 (SF-295 CNS): > 100 µM; TGI (SF-295 CNS): > 100 µM; GI50 (CCRF-CEM leukemia): > 100 µM; TGI (CCRF-CEM leukemia): > 100 µM; GI50 (NCI-H23 lung): > 100 µM; TGI (NCI-H23 lung): > 100 µM; GI50 (NCI-H226 lung): > 100 µM; TGI (NCI-H226 lung): > 100 µM; GI50 (A498 renal): > 100 µM; TGI (A498 renal): > 100 µM; GI50 (SF-539 CNS): > 100 µM; TGI (SF-539 CNS): > 100 µM; GI50 (COLO 205 colon): > 100 µM; TGI (COLO 205 colon): > 100 µM; GI50 (BT-549 breast): > 100 µM; TGI (BT-549 breast): > 100 µM; GI50 (OVCAR-3 ovarian): > 100 µM; TGI (OVCAR-3 ovarian): > 100 µM; GI50 (M14 melanoma): > 100 µM; TGI (M14 melanoma): > 100 µM; GI50 (SN12C renal): > 100 µM; TGI (SN12C renal): > 100 µM; GI50 (HCT-15 colon): 67 µM; TGI (HCT-15 colon): > 100 µM; GI50 (SK-MEL-5 melanoma): 94 µM; TGI (SK-MEL-5 melanoma): > 100 µM; GI50 (KM12 colon): 44.2 µM; TGI (KM12 colon): > 100 µM; GI50 (HT29 colon): 85.5 µM; TGI (HT29 colon): > 100 µM; GI50 (OVCAR-4 ovarian): > 100 µM; TGI (OVCAR-4 ovarian): > 100 µM; GI50 (HOP-62 NSCLC): 64.7 µM; TGI (HOP-62 NSCLC): > 100 µM; GI50 (RXF 393 renal): > 100 µM; TGI (RXF 393 renal): > 100 µM; GI50 (K-562 leukemia): 61.9 µM; TGI (K-562 leukemia): > 100 µM; GI50 (NCI-H522 lung): 99.6 µM; TGI (NCI-H522 lung): > 100 µM; GI50 (T-47D breast): 43.4 µM; TGI (T-47D breast): > 100 µM; GI50 (EKVX NSCLC): 79.2 µM; TGI (EKVX NSCLC): > 100 µM; GI50 (OVCAR-8 ovarian): > 100 µM; TGI (OVCAR-8 ovarian): > 100 µM; GI50 (LOX IMVI melanoma): 20.5 µM; TGI (LOX IMVI melanoma): > 100 µM; GI50 (MDA-MB-231 breast): > 100 µM; TGI (MDA-MB-231 breast): > 100 µM; GI50 (IGROV1 ovarian): > 100 µM; TGI (IGROV1 ovarian): > 100 µM; GI50 (OVCAR-5 ovarian): > 100 µM; TGI (OVCAR-5 ovarian): > 100 µM; GI50 (HL-60(TB) leukemia): > 100 µM; TGI (HL-60(TB) leukemia): > 100 µM; GI50 (SW-620 colon): 34 µM; TGI (SW-620 colon): > 100 µM; GI50 (SK-MEL-28 melanoma): > 100 µM; TGI (SK-MEL-28 melanoma): > 100 µM; GI50 (PC-3 prostate): > 100 µM; TGI (PC-3 prostate): > 100 µM; GI50 (MDA-MB-435): 91 µM; TGI (MDA-MB-435): > 100 µM; GI50 (UO-31 renal): > 100 µM; TGI (UO-31 renal): > 100 µM; GI50 (A549 NSCLC): > 100 µM; TGI (A549 NSCLC): > 100 µM; GI50 (SK-OV-3 ovarian): > 100 µM; TGI (SK-OV-3 ovarian): > 100 µM; GI50 (UACC-257 melanoma): > 100 µM; TGI (UACC-257 melanoma): > 100 µM; GI50 (RPMI-8226 leukemia): 35.9 µM; TGI (RPMI-8226 leukemia): > 100 µM; GI50 (SK-MEL-2 melanoma): > 100 µM; TGI (SK-MEL-2 melanoma): > 100 µM
